Experimental data taken from paper PMC12606464, “Investigating NFE2L1 activators for targeted protein aggregate clearance: a follow-up study” (RSC Medicinal Chemistry, 2025).

How the values were obtained:
[1] = system: NFE2L1 pathway (DDI2-dependent) in HCT116 cells; assay: 3×PSMA4-ARE-LUC reporter in HCT116 WT and DDI2 knockout cells; type: cell-based, human
Method: Fig. 1 (A) Targeted library screening of RUN compounds using the 3×PSMA4-ARE-LUC dual reporter assay in HEK293 cells. Cells were exposed to RUN compounds (5 μM) for 16 hours, and luciferase activity was measured. Data are presented as the mean ± SD from three independent experiments (n = 3). Results are shown as a fold change in luminescence relative to DMSO-treated cells. Selected hit compounds are highlighted in distinct colours. (B) RUN-89 specifically activates the NFE2L1 pathway. The DDI2 knockout (KO) and parental (WT) HCT116 cells were transfected with the 3×PSMA4-ARE-LUC reporter and treated with 0.5 μM bortezomib (BTZ) and 5 μM RUN-89 for 16 hours. Data are presented as the Geomean ± GeoSD of three independent experiments (n = 3). Statistical analysis was performed on log2-transformed values using two-way repeated-measures ANOVA followed by Šídak's multiple comparison test. (C) RUN-89 selectively triggers downstream signaling events associated with NFE2L1 gene expression. HEK293 cells were transfected with lipid nanoparticles (LNPs) carrying siRNAs targeting NFE2L1 or NFE2L2. LNPs formulated with non-targeting siRNA served as a negative control. Following 24 hours of incubation, cells were treated with 7.5 μM RUN-89 or DMSO (vehicle) for an additional 16 hours. Expression of the proteasomal subunit gene PSMC4 was then quantified by RT-qPCR. Data are shown as the Geomean ± GeoSD from three independent biological replicates (n = 3). Log2-transformed data were analyzed using two-way repeated-measures ANOVA with the Geisser–Greenhouse correction, followed by Tukey's multiple comparison test with individual variances computed for each comparison. Additional results for NFE2L1, NFE2L2, PSMB7, and PSMD12 are presented in SI Fig. S10.
To clarify whether the representative compound RUN-89 activates the NFE2L1-specific luciferase reporter independently of the KEAP1–NFE2L2 pathway, we used the 3×PSMA4-ARE-LUC dual reporter in previously published DDI2 knockout HCT116 cells (from ATCC CCL-247 (RRID:CVCL_0291)), in which the protease essential for NFE2L1 activation is disrupted. […] These findings indicate that RUN-89 activates the reporter construct through NFE2L1.
2 Biology Experimental Procedures […]
Cell lines were sourced from the ATCC (USA) and/or ECACC (UK), namely HCT116 (human colorectal carcinoma), ATCC CCL-247 (RRID:CVCL_0291), HEK-293 (human embryonic kidney), ATCC CRL-1573 (RRID:CVCL_0045), SH-SY5Y (human neuroblastoma), ATCC CRL-2266 (RRID:CVCL_0019). The characteristics of DDI2 knockout cells derived from HCT116 cells have been described previously (Sedlacek et al., 2025). All cell lines were tested for mycoplasma contamination. Most of the cell lines were cultured in Dulbecco's Modified Eagle Medium (DMEM) enriched with 10% fetal bovine serum (FBS) and 2 mM L-glutamine, under standard conditions of 37 °C with 5% CO₂. DNA transfection was performed with Lipofectamine 2000, following the manufacturer's instructions. […]
alamarBlue assay according to the standard protocol.(1)
2.3 Dual luciferase phenotypic assays
HEK293-derived cells stably expressing the 3×PSMA4-ARE-Luc reporter were maintained at low to mid passage numbers before use. For each experiment, cells were transiently transfected with the pRL-TK Renilla luciferase plasmid using Lipofectamine 2000.
Approximately 5–6 hours post-transfection, cells were seeded into plate format according to the experiment (384-well plate mostly). On the following day, cells were treated with the indicated test compounds or DMSO vehicle control for 16 hours (unless otherwise specified).
After treatment, cells were lysed and luciferase activities were quantified using the Dual-Luciferase® Reporter Assay System according to the manufacturer’s instructions and established protocols.(2, 3) For assays using the CMV-XBP-Gluc construct encoding Gaussia […]

[2] = system: NFE2L1 pathway; assay: 3×PSMA4-ARE-LUC reporter with or without N-acetyl-L-cysteine (NAC); type: cell-based, human; conditions: HEK293, 5 μM, 16 h
Text: We next examined whether the selected RUN compounds activate the NFE2L1 pathway in a stress-independent manner, while preserving normal ubiquitin-dependent proteasomal degradation. This distinction is crucial, as the therapeutic benefit of NFE2L1 activation lies in its ability to alleviate proteotoxic stress and target disease-related proteins for degradation without compromising normal proteostasis. To assess this, U2OS cells stably expressing the short-lived fluorescent reporter Ub-G76V-GFP were treated with various concentrations of RUN compounds. […] We also examined whether compound-induced activation of NFE2L1 could be attributed to the generation of reactive oxygen species (ROS). To test this, the 3×PSMA4-ARE-LUC reporter assay was performed in the presence or absence of the antioxidant N-acetyl-L-cysteine (NAC). A decrease in reporter activity upon NAC treatment would indicate pathway activation through oxidative stress. […]
To determine whether RUN compounds activate the NFE2L1 pathway via reactive oxygen species (ROS) generation or through Keap1-NRF2 pathway crosstalk, we used the 3xPSMA4-ARE-LUC dual reporter assay in HEK293 cells. […] A reduction in luminescence signal upon NAC co-treatment would indicate that the compound activates the reporter via ROS-mediated mechanism or Keap1-NRF2-dependent oxidative/electrophilic stress. […]

Structure (SMILES) | Mean log2-transformed reporter fold change, HCT116 KO 04 ([1]; DDI2-/- clone KO 04, 0.5 μM BTZ or 5 μM RUN-89, 16 h, DMSO = 0) | Mean log2-transformed reporter fold change, HCT116 KO 11 ([1]; DDI2-/- clone KO 11, 0.5 μM BTZ or 5 μM RUN-89, 16 h, DMSO = 0) | Reporter activity in DDI2-deficient cells ([1]; DDI2 knockout HCT116, in contrast to wild-type cells) | Mean log2-transformed reporter fold change, HCT116 WT ([1]; WT (DDI2+/+), 0.5 μM BTZ or 5 μM RUN-89, 16 h, DMSO = 0) | NFE2L1 reporter activation in the presence of NAC [2]
COc1ccc(/C=C2\CC(NC(=O)C3CCCC3)C/C(=C\c3ccc(OC)c(OC)c3)C2=O)cc1OC (centres unmarked) [RUN-89] | 0.09237 | 0.4773 | neither the proteasome inhibitor bortezomib nor RUN-89 induced reporter activity | 1.7 | –
COc1ccc(/C=C2\CC(NC(=O)c3ccccn3)C/C(=C\c3ccc(OC)c(OC)c3)C2=O)cc1OC (centres unmarked) [RUN-94] | – | – | – | – | retained its activity
